Assay results published in ChEMBL document CHEMBL1777778 (Bioorg Med Chem Lett, 2011).
Converted amounts (≈) assume the structure as drawn.

Tests used:
[1] = Aqueous solubility of the compound in phosphate buffer at pH 6.5 by reverse phase HPLC analysis; type: physicochemical
[2] = Clearance in Hanover Wistar rat at 3 mg/kg, iv; type: ADME, organism-based; parameters: dose 3 mg/kg, route intravenous; conditions: in vivo
[3] = Intrinsic clearance in rat liver microsomes assessed per mg of protein; type: ADME, Microsome
[4] = Permeability across basolateral to apical side in human Caco2 cells at 10 uM after 21 days; type: ADME, cell-based; conditions: Caco-2, read-out: permeability
[5] = Cmax in Hanover Wistar rat at 3 mg/kg, po; type: ADME, organism-based; parameters: dose 3 mg/kg, route oral; conditions: in vivo
[6] = Permeability across apical to basolateral side of human Caco2 cells at 10 uM after 21 days; type: ADME, cell-based; conditions: Caco-2, read-out: permeability
[7] = Volume of distribution at steady state in Hanover Wistar rat at 3 mg/kg, iv; type: ADME, organism-based; parameters: dose 3 mg/kg, route intravenous; conditions: in vivo, read-out: Vdss
[8] = Oral bioavailability in Hanover Wistar rat at 3 mg/kg; type: ADME, organism-based; conditions: in vivo
[9] = AUC in Hanover Wistar rat at 3 mg/kg, po; type: ADME, organism-based; parameters: dose 3 mg/kg, route oral; conditions: plasma
[10] = Half life in Hanover Wistar rat at 3 mg/kg, iv; type: ADME, organism-based; parameters: dose 3 mg/kg, route intravenous; conditions: in vivo
[11] = Intrinsic clearance in human liver microsomes assessed per mg of protein; type: ADME, Microsome

Question: For `C[C@H](CS(C)(=O)=O)Nc1n[nH]c2nc(Oc3ccc(F)cc3F)ncc12`, which solubility [1] is on record?
Answer: 57.2 µg/mL (≈ 149 µM)

Question: And the clearance [2]?
Answer: 43.6 mL/min/kg

Question: And the microsomal CLint [3]?
Answer: 6.2 µL/min/mg

Question: And the Papp B→A at 10 µM [4]?
Answer: 18.9 ×10⁻⁶ cm/s

Question: And the Cmax [5]?
Answer: 446 ng/mL

Question: What about the Papp A→B at 10 µM [6] of the same compound?
Answer: 3 ×10⁻⁶ cm/s

Question: And the Vd [7]?
Answer: 8.1 L/kg

Question: What about the bioavailability [8] of the same compound?
Answer: 105%

Question: What about the AUC [9] of the same compound?
Answer: 1220 ng·h/mL

Question: And the half-life [10]?
Answer: 3.4 h

Question: What about the microsomal CLint [11] of the same compound?
Answer: 0.74 µL/min/mg
